This note sets out measurements from ChEMBL document CHEMBL4304741, “Modification and Biological Evaluation of a Series of 1,5-Diaryl-1,2,4-triazole Compounds as Novel Agents against Pancreatic Cancer Metastasis through Targeting Myoferlin” (J Med Chem, 2019).

Data set [1] relates to PANC-1. Kind of data set: Antiinvasive activity against human PANC1 cells measured after 18 hrs in presence of mitomycin C using crystal violet staining by inverted microscopy-based matrigel coated transwell assay. Type of data set: functional, cell-based. As to conditions: PANC-1, 18 h.
For data set [2], the system named is PANC-1. Nature of the data set: Antimigratory activity against human PANC1 cells measured after 18 hrs in presence of mitomycin C using crystal violet staining by inverted microscopy-based transwell assay. Type of data set: functional, cell-based. The following applies: PANC-1, 18 h.
Data set [3] is described as follows: Toxicity in Balb/c nude mouse xenografted with PANC1 cells assessed as pathological changes in lung at 25 mg/kg/day, ip by H and E staining-based microscopic analysis. Type of data set: organism-based. The following applies: in vivo.
Data set [4] can be described thus: Toxicity in Balb/c nude mouse xenografted with PANC1 cells assessed as pathological changes in heart at 25 mg/kg/day, ip by H and E staining-based microscopic analysis. In kind it is organism-based. The following applies: in vivo.
The nature of data set [5]: Toxicity in Balb/c nude mouse xenografted with PANC1 cells assessed as pathological changes in kidney at 25 mg/kg/day, ip by H and E staining-based microscopic analysis. In kind it is organism-based. The following applies: in vivo.
Data set [6] can be described thus: Toxicity in Balb/c nude mouse xenografted with PANC1 cells assessed as pathological changes in spleen at 25 mg/kg/day, ip by H and E staining-based microscopic analysis. As to conditions: in vivo. In kind it is organism-based.
The nature of data set [7]: Toxicity in Balb/c nude mouse xenografted with PANC1 cells assessed as body weight loss at 25 mg/kg/day, ip. Type of data set: organism-based. As to conditions: in vivo.
A short description of data set [8]: Toxicity in Balb/c nude mouse xenografted with PANC1 cells assessed as pathological changes in liver at 25 mg/kg/day, ip by H and E staining-based microscopic analysis. Type of data set: organism-based. As to conditions: in vivo.
Data set [9] deals with PANC-1. Nature of the data set: Antimetastatic activity against human PANC1 cells harboring luciferase reporter gene xenografted in Balb/c nude mouse at 25 mg/kg/day, ip measured every 10 days by bioluminescence imaging analysis. In kind it is functional, organism-based.
Data set [10] concerns PANC-1. Nature of the data set: Antimetastatic activity against human PANC1 cells harboring luciferase reporter gene xenografted in Balb/c nude mouse assessed as mouse survival at 25 mg/kg/day, ip (reference value: 25%). Type of data set: functional. The following applies: PANC-1, ip.
For data set [11], the system named is PANC-1. Nature of the data set: Antimigratory activity against MYOF-knockout human PANC1 cells measured after 18 hrs in presence of mitomycin C using crystal violet staining by inverted microscopy-based transwell assay. In kind it is functional, cell-based.
Data set [12] addresses T1, Myoferlin (Homo sapiens, UniProt Q9NZM1). Nature of the data set: Binding affinity to recombinant human GST-tagged MYOF C2 domain (3445 to 3912 residues) expressed in Escherichia coli BL21 (DE3) at 0.3125 to 10 uM by surface plasmon resonance analysis.
Data set [13] has as its target T1, Myoferlin. Kind of data set: Binding affinity to recombinant human GST-tagged MYOF C2 domain (3445 to 3912 residues) expressed in Escherichia coli BL21 (DE3) at 0.03125 to 0.5 uM by surface plasmon resonance analysis.

Activity calls are given as the source filed them. The rule behind the calls is not given here. Bounds are passed on as bounds.

T1 sequence (Q9NZM1 whole entry, the tested form may be a part): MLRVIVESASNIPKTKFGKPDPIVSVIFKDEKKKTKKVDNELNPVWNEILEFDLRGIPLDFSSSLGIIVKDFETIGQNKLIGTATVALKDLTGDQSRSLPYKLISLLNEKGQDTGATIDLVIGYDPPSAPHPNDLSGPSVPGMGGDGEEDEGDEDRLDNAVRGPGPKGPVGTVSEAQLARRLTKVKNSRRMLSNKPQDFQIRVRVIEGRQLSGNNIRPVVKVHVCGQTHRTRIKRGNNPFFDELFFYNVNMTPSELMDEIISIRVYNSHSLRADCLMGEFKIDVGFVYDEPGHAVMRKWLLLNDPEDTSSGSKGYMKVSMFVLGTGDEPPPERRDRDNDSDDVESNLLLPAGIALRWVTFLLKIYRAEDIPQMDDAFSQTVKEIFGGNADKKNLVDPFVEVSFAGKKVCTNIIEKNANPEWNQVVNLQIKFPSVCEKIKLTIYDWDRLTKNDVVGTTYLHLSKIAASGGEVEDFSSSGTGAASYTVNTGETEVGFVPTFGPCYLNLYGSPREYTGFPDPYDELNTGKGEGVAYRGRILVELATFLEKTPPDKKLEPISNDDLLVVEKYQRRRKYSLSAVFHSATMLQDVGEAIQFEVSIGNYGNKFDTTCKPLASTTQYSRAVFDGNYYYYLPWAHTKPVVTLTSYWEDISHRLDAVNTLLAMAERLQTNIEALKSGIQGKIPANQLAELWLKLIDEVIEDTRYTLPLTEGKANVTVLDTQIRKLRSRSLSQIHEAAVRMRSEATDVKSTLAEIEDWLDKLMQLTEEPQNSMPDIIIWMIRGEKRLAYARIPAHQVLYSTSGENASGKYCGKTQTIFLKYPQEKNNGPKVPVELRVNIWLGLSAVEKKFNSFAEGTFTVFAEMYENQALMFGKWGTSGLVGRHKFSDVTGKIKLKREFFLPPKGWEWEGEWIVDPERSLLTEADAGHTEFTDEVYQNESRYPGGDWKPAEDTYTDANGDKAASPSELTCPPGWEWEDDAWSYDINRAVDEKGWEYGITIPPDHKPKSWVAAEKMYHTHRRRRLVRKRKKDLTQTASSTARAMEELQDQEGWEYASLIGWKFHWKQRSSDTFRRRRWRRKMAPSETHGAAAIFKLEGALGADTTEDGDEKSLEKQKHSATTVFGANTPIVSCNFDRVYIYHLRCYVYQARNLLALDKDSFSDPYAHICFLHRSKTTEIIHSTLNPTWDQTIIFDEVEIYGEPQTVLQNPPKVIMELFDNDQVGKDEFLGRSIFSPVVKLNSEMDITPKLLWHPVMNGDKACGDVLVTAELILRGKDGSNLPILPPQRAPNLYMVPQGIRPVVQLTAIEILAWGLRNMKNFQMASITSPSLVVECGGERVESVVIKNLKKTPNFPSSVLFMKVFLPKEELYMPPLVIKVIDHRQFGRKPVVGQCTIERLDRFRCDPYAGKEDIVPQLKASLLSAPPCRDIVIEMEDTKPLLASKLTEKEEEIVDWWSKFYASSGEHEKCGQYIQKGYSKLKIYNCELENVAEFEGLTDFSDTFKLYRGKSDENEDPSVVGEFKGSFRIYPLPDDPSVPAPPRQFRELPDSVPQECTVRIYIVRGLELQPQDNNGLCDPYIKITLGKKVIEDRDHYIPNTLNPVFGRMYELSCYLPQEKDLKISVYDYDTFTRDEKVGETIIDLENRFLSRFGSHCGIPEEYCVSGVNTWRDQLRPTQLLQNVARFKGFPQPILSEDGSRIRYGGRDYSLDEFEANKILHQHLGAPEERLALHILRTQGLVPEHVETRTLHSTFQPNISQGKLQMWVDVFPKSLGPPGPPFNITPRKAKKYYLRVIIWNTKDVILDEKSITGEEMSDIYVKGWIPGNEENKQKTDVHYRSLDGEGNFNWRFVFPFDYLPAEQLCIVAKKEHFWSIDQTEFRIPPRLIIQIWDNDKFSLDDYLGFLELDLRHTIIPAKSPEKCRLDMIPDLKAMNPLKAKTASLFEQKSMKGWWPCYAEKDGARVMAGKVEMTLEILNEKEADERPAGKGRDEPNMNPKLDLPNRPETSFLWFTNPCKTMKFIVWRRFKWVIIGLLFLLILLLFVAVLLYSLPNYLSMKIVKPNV

For the molecule `COc1ccccc1-c1nc(C)nn1-c1cccc(C(=O)NCCc2ccc(Br)cc2)c1`, the IC50 came out at 10.9 µM in data set [1] and 7.92 µM in [2].

In the case of `Nc1ccn([C@@H]2O[C@H](CO)[C@@H](O)C2(F)F)c(=O)n1` [GEMCITABINE], the Activity result in [3], in data set [4], in data set [5], in [6], in data set [7] and in data set [8] was “Non-Toxic” throughout. The IC50 in data set [1] and in [2] was 0.16 µM in each case. Besides, the outcome in data set [9] was Active. Moreover, the survival at 25 mg/kg/day in [10] stood at 60%.

Regarding `CCc1nc(-c2ccc(O)cc2)n(-c2cccc(C(=O)NCCCCc3ccccc3)c2)n1`, in data set [2], the IC50 is 0.22 µM.

As for `COc1ccc(-c2nc(C)nn2-c2cccc(C(=O)NCCc3ccncc3)c2)cc1`, the IC50 in data set [2] was greater than 20 µM.

`COc1ccc(-c2nc(C)nn2-c2cccc(C(=O)NCCOCc3ccccc3)c2)cc1`: the IC50 in data set [2] is 9.34 µM.

Turning to `COc1ccccc1N1C(=O)CSC1c1cccc(C(=O)NCCc2ccc(Br)cc2)c1` (stereo not drawn), the concentration for half-maximal inhibition (IC50) was determined as 0.54 µM in data set [1] and 0.39 µM in [2].

With `COc1ccc(-c2nc(C)nn2-c2cccc(C(=O)NCCc3ccc(Cl)cc3)c2)cc1`, the concentration for half-maximal inhibition (IC50) in [1] is 9.87 µM; in [2], 4.36 µM.

As to `COc1ccc(-c2nc(C)nn2-c2cccc(C(=O)NCCc3cccs3)c2)cc1`, the IC50 in data set [2] is greater than 20 µM.

As to `COc1ccc(-c2nc(C)nn2-c2cccc(C(=O)NCCCCCc3ccccc3)c2)cc1`, the IC50 in data set [2] is greater than 20 µM.

As for `CCc1nc(-c2ccc(OC(F)(F)F)cc2)n(-c2cccc(C(=O)NCCCCc3ccccc3)c2)n1`, the concentration for half-maximal inhibition (IC50) in data set [2] was 0.64 µM.

As to `CCc1nc(-c2cncc(C(=O)NCCCCc3ccccc3)c2)n(-c2ccc(OC)cc2)n1`, the IC50 in data set [2] came to 1.35 µM.

Consider `COc1ccc(-c2nc(C(C)C)nn2-c2cccc(C(=O)NCCCCc3ccccc3)c2)cc1`, for which, in [2], the IC50 is greater than 20 µM.

With `COc1ccc(-c2nc(C3CC3)nn2-c2cccc(C(=O)NCCCCc3ccccc3)c2)cc1`, the half-inhibitory concentration (IC50) in data set [2] came to 7.68 µM.

In the case of `CCc1nc(-c2cccc(C(=O)NCCCCc3ccccc3)n2)n(-c2ccc(OC)cc2)n1`, the IC50 in data set [2] came to 9.64 µM.

For `COc1ccc(-c2ncnn2-c2cccc(C(=O)NCCCCc3ccccc3)c2)cc1`, the IC50 in data set [2] is greater than 20 µM.

With `COc1ccc(-c2nc(C)nn2-c2cccc(C(=O)NCCCOc3ccccc3)c2)cc1`, the IC50 in data set [1] is 3.56 µM; in data set [2] it was 3.12 µM.

Regarding `CCCCc1nc(-c2ccc(OC)cc2)n(-c2cccc(C(=O)NCCCCc3ccccc3)c2)n1`, in [2], the concentration for half-maximal inhibition (IC50) amounted to 16.8 µM.

Take `CCc1nc(-c2ccc(OC)cn2)n(-c2cccc(C(=O)NCCCCc3ccccc3)c2)n1`: the IC50 in [1] is 0.15 µM; in data set [2], 0.12 µM.

For `COc1ccc(-c2nc(C)nn2-c2cccc(C(=O)NCCCc3ccc(Br)cc3)c2)cc1`, in data set [2], the concentration for half-maximal inhibition (IC50) is greater than 20 µM.

`CC(=O)O[C@@]12CO[C@@H]1C[C@H](O)[C@@]1(C)C(=O)[C@H](O)C3=C(C)[C@@H](OC(=O)[C@H](O)[C@@H](NC(=O)OC(C)(C)C)c4ccccc4)C[C@@](O)([C@@H](OC(=O)c4ccccc4)[C@H]21)C3(C)C`: the outcome in data set [11] was Active.

As for `CCOc1ccc(-c2nc(CC)nn2-c2cccc(C(=O)NCCCCc3ccccc3)c2)cc1`, the half-maximal inhibitory concentration (IC50) in [2] was 16.8 µM.

Regarding `CCc1nc(-c2ccc(OC)nc2)n(-c2cccc(C(=O)NCCCCc3ccccc3)c2)n1`, the IC50 in data set [2] stood at 0.81 µM.

Consider `CCc1nc(-c2cccc(C(=O)NCCCCc3ccccc3)c2)n(-c2ccc(OC)cc2)n1`, for which, in data set [2], the IC50 came to 0.42 µM.

As to `COc1ccc(-c2nc(C)nn2-c2cccc(C(=O)NCCc3ccc(Br)cc3)c2)cc1`, the half-maximal inhibitory concentration (IC50) was determined as 2.96 µM in data set [1] and 3.24 µM in data set [2].

As for `CCc1nc(-c2ccc(OC)cc2)n(-c2cncc(C(=O)NCCCCc3ccccc3)c2)n1`, the IC50 in data set [2] was 1.62 µM.

Turning to `COc1ccc(-c2nc(C)nn2-c2cccc(C(=O)NCCCCc3ccccc3)c2)cc1`, the outcome in data set [12] was Active. Also, the concentration for half-maximal inhibition (IC50) in data set [2] was determined as 0.63 µM.

On to `COc1ccccc1-c1nc(C)nn1-c1cccc(C(=O)NCCc2ccc(Cl)cc2)c1`, for which the IC50 in data set [1] was 27.6 µM; in [2] it was greater than 20 µM.

For `COc1ccc(-c2nc(C)nn2-c2cccc(C(=O)NCCCCc3ccc(Br)cc3)c2)cc1`, in data set [2], the IC50 is 3.02 µM.

Regarding `COc1ccc(-c2nc(C)nn2-c2cccc(C(=O)NCCCc3ccc(Cl)cc3)c2)cc1`, the IC50 in data set [2] is greater than 20 µM.

For the molecule `CCc1nc(-c2cnc(OC)cn2)n(-c2cccc(C(=O)NCCCCc3ccccc3)c2)n1`, the half-inhibitory concentration (IC50) in data set [2] is 0.31 µM.

`CCc1nc(-c2ccc(OC)cc2)n(-c2cccc(C(=O)NCCCCc3ccccc3)c2)n1`: the IC50 in data set [1] was found to be 0.18 µM; in data set [2] it was 0.14 µM. In data set [13], the result was Active.

With `COc1ccc(-n2nc(C)nc2-c2cccc(C(=O)NCCCCc3ccccc3)c2)cc1`, the IC50 in [2] was 1.68 µM.

Take `COc1ccc(-c2nc(C)nn2-c2cccc(C(=O)NCCc3ccccn3)c2)cc1`: in [2], the IC50 is greater than 20 µM.

With `CCc1nc(-c2ccc(OC(F)F)cc2)n(-c2cccc(C(=O)NCCCCc3ccccc3)c2)n1`, the IC50 in data set [2] turned out to be 0.83 µM.
